Measured values from patent publication US20140113947A1, “PHARMACEUTICAL CREAM COMPOSITIONS OF OXYMETAZOLINE AND METHODS OF USE” (Allergan, Inc., priority 2011, published 2014).

What was measured:
[1] = In vitro permeation (Hanson Microette Franz Cell), flux across polysulfone membrane; assay type: in vitro ADME
Method: (§1) An in vitro permeation procedure for oxymetazoline cream was developed using the 0.01 and 0.10% w/w oxymetazoline cream. The in vitro experiments were conducted using Hanson Microette Franz Cell apparatus and 0.01N PBS (pH 7.4) as the receiving medium. Other critical parameters were evaluated such as the type of semi-synthetic membrane, sample timing (time dependent release-permeability profile), method sensitivity, specificity and linearity.
Permeation characterization of oxymetazoline cream of different strengths (0.01% w/w, 0.05% w/w, 0.10% w/w and 0.15% w/w) was based on flux study across two different artificial membranes (cellulose acetate and polysulfone). The concentration of oxymetazoline which permeated through the membranes was measured using an HPLC assay.

[2] = In vitro permeation (Hanson Microette Franz Cell), flux across cellulose acetate membrane; assay type: in vitro ADME
Method: as §1, with “linearity. Permeation characterization of oxymetazoline cream of different strengths (0.01% w/w, 0.05% w/w, 0.10% w/w and 0.15% w/w) was based on flux study across two different artificial membranes (cellulose acetate and polysulfone). The concentration of oxymetazoline which permeated through the membranes was measured using an HPLC assay.” for “linearity.”

[3] = concentration range 0.01-0.10% w/w
[4] = creams 0.01-0.15% w/w, dump and die profile

SMILES: Cc1cc(C(C)(C)C)c(O)c(C)c1CC1=NCCN1 [oxymetazoline, 3-(4,5-dihydro-1H-imidazol-2-ylmethyl)-2,4-dimethyl-6-tert-butyl-phenol]
- concentration level above which in vitro membrane transport reached saturation [1]: > 0.1 % w/w
- Oxymetazoline permeability (AUC0-24h) as a function of concentration [1, 3]: linearly increased
- time of peak of oxymetazoline permeation rate after cream application [1, 4]: 0.5 h
- concentration level above which in vitro membrane transport reached saturation [2]: > 0.1 % w/w
- Oxymetazoline permeability (AUC0-24h) as a function of concentration [2, 3]: linearly increased
- time of peak of oxymetazoline permeation rate after cream application [2, 4]: 0.5 h
